{
  "source": "patent US20140072557A1",
  "about": "“MEDICINAL AGENT FOR SUPPRESSING MALIGNANT TUMOR METASTASIS” (priority 2011, published 2014)",
  "key": {"HUVEC": {"system": "HUVEC", "experiment": "VE-cadherin expression and intercellular adhesion of confluent HUVEC with VEGF", "type": "cell-based, human", "details": "VEGF+hANP", "method": "Normal human umbilical cord vein endothelial cells (HUVEC) were purchased from Takara Bio, Inc. Medium preparation and subculture were performed according to the package insert. Nuclear staining was performed using TOPRO3 (purchased from Invitrogen), and immunostaining of VE-cadherin was performed using anti-VE-cadherin antibody (purchased from BD Biosciences). p After culturing the HUVEC to confluent and replacing the medium with a serum free medium, nuclear staining and immunostaining using anti-VE-cadherin antibody were performed in the presence or absence of VEGF and hANP to observe the expression of VE-cadherin."}, "[1]": {"system": "cancer cells (A549, H460, H520, H358 cells)", "experiment": "Combined effect of hANP and cisplatin on apoptosis induction in cancer cells", "type": "cell-based", "details": "hANP 1 or 10 μM with cisplatin 1-30 μM, 48 hours", "method": "As the cisplatin, CISPLATIN inj. “Maruko” (trade name, Nichi-Iko Pharmaceutical) was used.\nUsing a 96-well dish, the A549 cells were cultured at 1×10^4 cells/well. The next day, the culture medium was replaced with DMEM culture medium free from FBS. After 24-hours culture, the cells were divided into groups (control group, cisplatin single administration group, 1 μM hANP group, cisplatin+1 μM hANP group, 10 μM hANP group, and cisplatin+10 μM hANP group), and the following experiment was conducted.\nTo the culture medium, for the hANP addition groups, a hANP solution prepared so that the final concentration of hANP would be 1 or 10 μM was added, whereas for the control group and the cisplatin single administration group, the same amount of physiological saline was added. Further, for the cisplatin addition groups, a cisplatin solution prepared so that the final concentration of cisplatin would be 1, 5, 10, 20, or 30 μM was added (for the control group and the hANP single administration group, the same amount of physiological saline was added). […] 48 hours later, trypan blue staining was performed and the cell viability (number of living cells/total number of all cells) was determined with the use of an automatic cell counter Countess (registered trademark) (Invitrogen). […]"}, "A549 cells": {"system": "A549 cells", "experiment": "Intracellular cGMP level in A549 cells on natriuretic peptide stimulus", "type": "cell-based", "details": "1×10^−11 M to 1×10^−6 M, 10 minutes", "method": "The A549 cells were cultured in a 24-well dish at 4×10^4 cells/well, and the culture medium was replaced with DMEM culture medium free from FCS the next day. To the culture medium, solutions of hANP, hBNP, and hCNP (final concentration: ten-fold serial dilution from 1×10^−11 M to 1×10^−6 M, the same amount of physiological saline was used as a control) were separately added. After 10 minutes passed, 400 μL of cooled 70% ethanol (containing 0.1 N hydrochloric acid) was added, and ultrasonication was performed for a short time. The treated solution was lyophilized, and the cGMP level was measured using Cyclic GMP Assay kit (made by Yamasa Corp.)."}},
  "data": [
    {"compound": "CC[C@H](C)[C@@H]1NC(=O)[C@H](CCCNC(=N)N)NC(=O)[C@H](CC(=O)O)NC(=O)[C@H](CCSC)NC(=O)[C@H](CCCNC(=N)N)NC(=O)CNC(=O)CNC(=O)[C@H](Cc2ccccc2)NC(=O)[C@@H](NC(=O)[C@H](CO)NC(=O)[C@H](CO)NC(=O)[C@H](CCCNC(=N)N)NC(=O)[C@H](CCCNC(=N)N)NC(=O)[C@H](CC(C)C)NC(=O)[C@@H](N)CO)CSSC[C@@H](C(=O)N[C@@H](CC(N)=O)C(=O)N[C@@H](CO)C(=O)N[C@@H](Cc2ccccc2)C(=O)N[C@@H](CCCNC(=N)N)C(=O)N[C@@H](Cc2ccc(O)cc2)C(=O)O)NC(=O)CNC(=O)[C@H](CC(C)C)NC(=O)CNC(=O)[C@H](CO)NC(=O)[C@H](CCC(N)=O)NC(=O)[C@H](C)NC(=O)CNC1=O", "note": "[hANP, carperitide]", "values": [
      {"measurement": "decrease of VE-cadherin expression and intercellular gaps caused by VEGF", "setting": "HUVEC", "result": "this phenomenon was suppressed"},
      {"measurement": "apoptosis-inducing activity in combination with cisplatin", "setting": "[1]", "result": "enhanced"},
      {"measurement": "intracellular cGMP level", "setting": "A549 cells", "result": "increased the intracellular cGMP level of the A549 cells in a concentration-dependent manner"}
    ]}
  ]
}
